Experiments:
[1] = test system: U-937; assay: Induction of apoptosis in human U937 cells assessed as necrotic cells at 0.5 uM after 48 hrs by Annexin V-FITC/PI staining based flow cytometry (reference value: 0%); type: functional
[2] = test system: K562; assay: Antiproliferative activity against human K562 cells after 72 hrs by MTT assay; type: functional, cell-based; conditions: K562, 72 h
[3] = test system: U-937; assay: Induction of apoptosis in human U937 cells assessed as necrotic cells at 1 uM after 48 hrs by Annexin V-FITC/PI staining based flow cytometry (reference value: 0%); type: functional
[4] = test system: U-937; assay: Induction of apoptosis in human U937 cells assessed as early apoptotic cells at 2.5 uM after 48 hrs by Annexin V-FITC/PI staining based flow cytometry (reference value: 0.140%); type: functional
[5] = biological target: DNMT3A2/3L complex (Homo sapiens) (UniProt Q9Y6K1+Q9UJW3); assay: Inhibition of DNMT3A/3L (unknown origin) at 100 uM using biotinylated DNA oligonucleotides as substrate preincubated for 15 mins followed by substrate/[3H]-SAM addition measured after 4 hrs by liquid scintillation counting analysis; type: protein-complex assay
Sequence of DNMT3A2/3L complex (Homo sapiens) (Q9UJW3 whole entry, looked up): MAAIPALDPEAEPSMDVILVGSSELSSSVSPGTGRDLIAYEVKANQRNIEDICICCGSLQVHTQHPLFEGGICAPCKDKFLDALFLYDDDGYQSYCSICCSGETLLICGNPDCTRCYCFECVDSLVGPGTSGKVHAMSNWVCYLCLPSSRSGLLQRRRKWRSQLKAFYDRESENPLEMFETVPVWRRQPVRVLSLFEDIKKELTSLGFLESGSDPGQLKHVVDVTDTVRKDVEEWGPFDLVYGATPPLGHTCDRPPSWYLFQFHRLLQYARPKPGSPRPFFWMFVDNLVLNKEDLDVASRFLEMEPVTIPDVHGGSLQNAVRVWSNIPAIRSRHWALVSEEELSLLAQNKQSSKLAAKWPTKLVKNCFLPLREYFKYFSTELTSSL
Sequence of DNMT3A2/3L complex (Homo sapiens) (Q9Y6K1 whole entry, looked up): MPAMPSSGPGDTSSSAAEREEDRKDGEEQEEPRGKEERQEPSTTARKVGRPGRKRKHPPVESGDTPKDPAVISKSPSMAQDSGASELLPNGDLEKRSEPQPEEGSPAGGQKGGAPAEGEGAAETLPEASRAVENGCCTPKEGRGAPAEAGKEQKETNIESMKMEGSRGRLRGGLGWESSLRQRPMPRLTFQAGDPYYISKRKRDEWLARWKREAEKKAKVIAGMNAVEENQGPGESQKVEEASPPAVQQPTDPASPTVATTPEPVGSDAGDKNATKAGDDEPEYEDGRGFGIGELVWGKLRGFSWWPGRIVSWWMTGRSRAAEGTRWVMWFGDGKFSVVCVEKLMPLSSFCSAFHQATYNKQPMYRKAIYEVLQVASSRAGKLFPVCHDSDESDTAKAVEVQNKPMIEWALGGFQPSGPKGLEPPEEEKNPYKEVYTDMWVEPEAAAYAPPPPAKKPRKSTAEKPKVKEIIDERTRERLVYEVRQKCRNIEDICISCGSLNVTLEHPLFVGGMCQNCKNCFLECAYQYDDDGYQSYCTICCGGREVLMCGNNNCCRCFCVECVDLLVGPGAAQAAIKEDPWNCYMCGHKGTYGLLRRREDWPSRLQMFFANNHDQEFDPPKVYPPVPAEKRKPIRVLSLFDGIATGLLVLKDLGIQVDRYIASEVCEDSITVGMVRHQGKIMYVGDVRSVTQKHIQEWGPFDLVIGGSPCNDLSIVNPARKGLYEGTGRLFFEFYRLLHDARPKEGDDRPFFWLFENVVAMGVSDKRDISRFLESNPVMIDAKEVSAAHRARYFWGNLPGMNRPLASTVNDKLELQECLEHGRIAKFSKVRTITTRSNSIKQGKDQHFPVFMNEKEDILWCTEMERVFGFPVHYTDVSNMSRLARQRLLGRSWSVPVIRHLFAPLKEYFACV

[6] = test system: U-937; assay: Induction of apoptosis in human U937 cells assessed as necrotic cells at 2.5 uM after 48 hrs by Annexin V-FITC/PI staining based flow cytometry (reference value: 0%); type: functional
[7] = test system: U-937; assay: Antiproliferative activity against human U937 cells after 72 hrs by MTT assay; type: functional, cell-based; conditions: U-937, 72 h
[8] = test system: Salmonella typhimurium; assay: Genotoxicity in Salmonella typhimurium TA98 at 50 times IC50 by Ames test; type: toxicity; conditions: salmonella enterica subsp. enterica serovar typhimurium
[9] = biological target: DNMT3B-DNMT3L complex (Homo sapiens) (UniProt Q9UBC3+Q9UJW3); assay: Inhibition of DNMT3B/3L (unknown origin) at 100 uM using biotinylated DNA oligonucleotides as substrate preincubated for 15 mins followed by substrate/[3H]-SAM addition measured after 4 hrs by liquid scintillation counting analysis; type: protein-complex assay
Sequence of DNMT3B-DNMT3L complex (Homo sapiens) (Q9UJW3 whole entry, looked up, other chains not shown): as the sequence (Q9UJW3 whole entry, looked up) above

[10] = test system: U-937; assay: Induction of apoptosis in human U937 cells assessed as late apoptotic cells at 0.5 uM after 48 hrs by Annexin V-FITC/PI staining based flow cytometry (reference value: 0.279%); type: functional
[11] = test system: A549; assay: Antiproliferative activity against human A549 cells after 72 hrs by MTT assay; type: functional, cell-based; conditions: A549, 72 h
[12] = test system: U-937; assay: Induction of apoptosis in human U937 cells assessed as late apoptotic cells at 2.5 uM after 48 hrs by Annexin V-FITC/PI staining based flow cytometry (reference value: 0.279%); type: functional
[13] = test system: U-937; assay: Induction of apoptosis in human U937 cells assessed as early apoptotic cells at 0.5 uM after 48 hrs by Annexin V-FITC/PI staining based flow cytometry (reference value: 0.140%); type: functional
[14] = test system: Salmonella typhimurium; assay: Genotoxicity in Salmonella typhimurium TA97 at 50 times IC50 by Ames test; type: toxicity; conditions: salmonella enterica subsp. enterica serovar typhimurium
[15] = biological target: Histone deacetylase 1 (Homo sapiens, UniProt Q13547); assay: Inhibition of HDAC1 (unknown origin) preincubated for 15 mins followed by substrate addition measured after 60 mins by fluorescence assay
Sequence of Histone deacetylase 1 (Q13547 whole entry): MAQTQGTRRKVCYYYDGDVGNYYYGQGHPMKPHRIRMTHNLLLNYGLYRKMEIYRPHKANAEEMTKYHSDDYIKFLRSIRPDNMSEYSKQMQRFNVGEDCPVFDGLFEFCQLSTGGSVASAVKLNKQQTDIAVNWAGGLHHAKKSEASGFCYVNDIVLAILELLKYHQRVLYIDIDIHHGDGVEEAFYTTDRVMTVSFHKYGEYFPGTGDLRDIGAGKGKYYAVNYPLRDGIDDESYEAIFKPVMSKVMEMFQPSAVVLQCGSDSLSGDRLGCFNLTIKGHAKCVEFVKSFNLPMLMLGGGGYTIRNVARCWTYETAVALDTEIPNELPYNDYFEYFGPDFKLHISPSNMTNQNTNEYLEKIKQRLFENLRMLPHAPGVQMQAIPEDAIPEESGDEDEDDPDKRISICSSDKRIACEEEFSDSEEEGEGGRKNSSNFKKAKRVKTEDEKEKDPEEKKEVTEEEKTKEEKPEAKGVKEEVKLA

[16] = test system: U-937; assay: Induction of apoptosis in human U937 cells assessed as viable cells at 0.5 uM after 48 hrs by Annexin V-FITC/PI staining based flow cytometry (reference value: 99.6%); type: functional; conditions: U-937, 48 h, read-out: Activity
[17] = biological target: T1, Protein deacetylase HDAC6 (Homo sapiens, UniProt Q9UBN7); assay: Inhibition of HDAC6 (unknown origin) preincubated for 15 mins followed by substrate addition measured after 60 mins by fluorescence assay
T1 sequence (Q9UBN7 whole entry): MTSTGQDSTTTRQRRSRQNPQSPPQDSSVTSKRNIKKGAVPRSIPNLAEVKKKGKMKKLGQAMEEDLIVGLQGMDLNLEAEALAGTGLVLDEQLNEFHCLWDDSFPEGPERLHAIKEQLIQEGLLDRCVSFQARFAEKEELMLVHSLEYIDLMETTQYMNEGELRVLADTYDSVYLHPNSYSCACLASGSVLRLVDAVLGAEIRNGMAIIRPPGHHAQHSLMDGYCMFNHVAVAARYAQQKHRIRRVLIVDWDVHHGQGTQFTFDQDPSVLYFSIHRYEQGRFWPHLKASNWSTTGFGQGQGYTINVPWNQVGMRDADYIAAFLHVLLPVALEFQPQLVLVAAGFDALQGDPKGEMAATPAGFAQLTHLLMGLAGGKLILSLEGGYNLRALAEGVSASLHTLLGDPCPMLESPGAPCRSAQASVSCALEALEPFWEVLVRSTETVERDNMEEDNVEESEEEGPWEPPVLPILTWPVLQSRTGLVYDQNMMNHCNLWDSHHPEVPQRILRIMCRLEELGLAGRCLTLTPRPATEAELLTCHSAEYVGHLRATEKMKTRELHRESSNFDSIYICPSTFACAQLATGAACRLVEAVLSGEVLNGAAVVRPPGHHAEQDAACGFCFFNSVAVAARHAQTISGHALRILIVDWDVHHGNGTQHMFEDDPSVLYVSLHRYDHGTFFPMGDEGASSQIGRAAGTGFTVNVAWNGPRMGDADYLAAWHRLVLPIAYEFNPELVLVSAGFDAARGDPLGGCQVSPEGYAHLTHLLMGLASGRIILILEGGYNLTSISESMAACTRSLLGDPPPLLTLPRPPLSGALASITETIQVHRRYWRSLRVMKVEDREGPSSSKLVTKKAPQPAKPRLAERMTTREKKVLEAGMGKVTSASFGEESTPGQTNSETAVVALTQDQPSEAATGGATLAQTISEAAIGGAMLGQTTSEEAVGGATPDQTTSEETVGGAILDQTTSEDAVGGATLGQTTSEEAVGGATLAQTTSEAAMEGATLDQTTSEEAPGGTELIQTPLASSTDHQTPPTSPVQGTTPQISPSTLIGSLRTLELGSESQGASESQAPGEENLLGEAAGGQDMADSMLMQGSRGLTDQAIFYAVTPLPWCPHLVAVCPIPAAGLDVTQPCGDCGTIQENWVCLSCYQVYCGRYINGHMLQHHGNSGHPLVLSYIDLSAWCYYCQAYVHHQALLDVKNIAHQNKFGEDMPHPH

[18] = biological target: DNA (cytosine-5)-methyltransferase 1 (Homo sapiens) (UniProt P26358); assay: Inhibition of DNMT1 (unknown origin) at 100 uM using poly(dI-dC).poly(dI-dC) as substrate preincubated for 15 mins followed by substrate/[3H]-SAM addition measured after 120 mins by liquid scintillation counting analysis
Sequence of DNA (cytosine-5)-methyltransferase 1 (Homo sapiens) (P26358 whole entry): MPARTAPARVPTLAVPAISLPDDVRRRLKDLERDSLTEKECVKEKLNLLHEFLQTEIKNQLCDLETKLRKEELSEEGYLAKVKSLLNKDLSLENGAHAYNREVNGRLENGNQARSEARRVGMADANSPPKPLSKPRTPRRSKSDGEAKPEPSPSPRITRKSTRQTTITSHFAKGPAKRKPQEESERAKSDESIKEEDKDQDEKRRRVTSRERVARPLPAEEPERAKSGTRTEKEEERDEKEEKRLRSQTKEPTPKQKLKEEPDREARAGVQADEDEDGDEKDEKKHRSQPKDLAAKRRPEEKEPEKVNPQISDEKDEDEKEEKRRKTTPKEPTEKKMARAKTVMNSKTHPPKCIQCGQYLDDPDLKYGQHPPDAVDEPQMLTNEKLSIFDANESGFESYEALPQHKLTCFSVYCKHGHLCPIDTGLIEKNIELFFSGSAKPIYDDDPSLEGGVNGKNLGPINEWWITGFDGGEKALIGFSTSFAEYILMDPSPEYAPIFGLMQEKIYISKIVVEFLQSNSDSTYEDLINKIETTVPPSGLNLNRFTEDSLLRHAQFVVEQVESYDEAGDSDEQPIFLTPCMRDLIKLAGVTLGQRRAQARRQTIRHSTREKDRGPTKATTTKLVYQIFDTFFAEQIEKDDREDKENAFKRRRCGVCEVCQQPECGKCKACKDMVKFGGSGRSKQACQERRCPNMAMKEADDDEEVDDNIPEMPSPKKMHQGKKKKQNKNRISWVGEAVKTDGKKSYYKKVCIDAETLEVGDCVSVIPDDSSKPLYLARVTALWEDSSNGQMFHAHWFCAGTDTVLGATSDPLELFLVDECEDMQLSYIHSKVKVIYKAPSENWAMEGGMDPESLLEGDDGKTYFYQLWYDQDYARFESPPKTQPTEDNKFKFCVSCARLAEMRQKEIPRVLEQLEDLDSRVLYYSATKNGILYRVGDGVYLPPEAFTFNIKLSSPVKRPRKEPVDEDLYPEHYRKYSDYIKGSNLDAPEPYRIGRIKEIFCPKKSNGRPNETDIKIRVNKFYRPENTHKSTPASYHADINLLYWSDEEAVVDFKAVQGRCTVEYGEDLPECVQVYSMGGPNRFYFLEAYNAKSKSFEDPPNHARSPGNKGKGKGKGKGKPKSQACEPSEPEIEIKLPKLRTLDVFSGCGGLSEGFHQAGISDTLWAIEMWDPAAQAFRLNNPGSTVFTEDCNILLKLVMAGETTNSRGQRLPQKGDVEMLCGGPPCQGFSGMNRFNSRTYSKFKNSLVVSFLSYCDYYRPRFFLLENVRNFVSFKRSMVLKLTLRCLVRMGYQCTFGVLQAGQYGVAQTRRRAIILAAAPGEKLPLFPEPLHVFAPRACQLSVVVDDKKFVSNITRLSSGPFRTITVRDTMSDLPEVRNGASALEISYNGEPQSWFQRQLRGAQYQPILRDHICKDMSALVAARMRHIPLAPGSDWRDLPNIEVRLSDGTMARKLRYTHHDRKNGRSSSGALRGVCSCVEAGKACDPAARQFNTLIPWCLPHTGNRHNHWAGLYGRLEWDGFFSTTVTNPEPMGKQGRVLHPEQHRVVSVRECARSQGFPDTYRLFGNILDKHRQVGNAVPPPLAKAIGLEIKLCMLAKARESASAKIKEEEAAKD

[19] = test system: HepG2; assay: Antiproliferative activity against human HepG2 cells after 72 hrs by MTT assay; type: functional, cell-based; conditions: HepG2, 72 h
[20] = test system: Salmonella typhimurium; assay: Genotoxicity in Salmonella typhimurium TA1535 at 50 times IC50 by Ames test; type: toxicity; conditions: salmonella enterica subsp. enterica serovar typhimurium
[21] = test system: U-937; assay: Induction of apoptosis in human U937 cells assessed as viable cells at 1 uM after 48 hrs by Annexin V-FITC/PI staining based flow cytometry (reference value: 99.6%); type: functional; conditions: U-937, 48 h, read-out: Activity
[22] = test system: U-937; assay: Induction of apoptosis in human U937 cells assessed as late apoptotic cells at 1 uM after 48 hrs by Annexin V-FITC/PI staining based flow cytometry (reference value: 0.279%); type: functional
[23] = test system: U-937; assay: Induction of apoptosis in human U937 cells assessed as early apoptotic cells at 1 uM after 48 hrs by Annexin V-FITC/PI staining based flow cytometry (reference value: 0.140%); type: functional
[24] = test system: HCT-116; assay: Antiproliferative activity against human HCT116 cells after 72 hrs by MTT assay; type: functional, cell-based; conditions: HCT-116, 72 h
[25] = test system: HeLa; assay: Antiproliferative activity against human HeLa cells after 72 hrs by MTT assay; type: functional, cell-based
[26] = test system: Salmonella typhimurium; assay: Genotoxicity in Salmonella typhimurium TA102 at 50 times IC50 by Ames test; type: toxicity; conditions: salmonella enterica subsp. enterica serovar typhimurium
[27] = test system: U-937; assay: Induction of apoptosis in human U937 cells assessed as viable cells at 2.5 uM after 48 hrs by Annexin V-FITC/PI staining based flow cytometry (reference value: 99.6%); type: functional; conditions: U-937, 48 h, read-out: Activity

In the case of `COc1ccc(Cl)cc1C(=O)NCCc1ccc(/C=C/C(=O)NO)cc1`, the Activity [1] is reported as 0.02%, the IC50 [2] is reported as 2.75 µM and the Activity [3] is reported as 0.942%. For the same molecule, the Activity [4] was 41.8%, the inhibition [5] was 3.98% and the Activity [6] was 0.02%. For the same molecule, the IC50 [7] was 0.19 µM, the Activity [8] was “Non-Toxic” and the inhibition [9] was 10.6%. The Activity [10] was 9.11%, the IC50 [11] was 12.5 µM and the Activity [12] was 57.8%. For the same molecule, the Activity [13] was 6.9%, the Activity [14] was “Non-Toxic” and the IC50 [15] was 0.0192 µM. It also gave a viability at 0.5 µM [16] of 84%, an IC50 [17] of 0.012 µM and an inhibition [18] of 39.8 to 40%. For the same molecule, the IC50 [19] was 5.43 µM, the Activity [20] was “Non-Toxic” and the viability at 1 µM [21] was 52.8%. For the same molecule, the Activity [22] was 36.4%, the Activity [23] was 10.1% and the IC50 [24] was 5.39 µM. For the same molecule, the IC50 [25] was 10.6 µM, the Activity [26] was “Non-Toxic” and the viability at 2.5 µM [27] was 0.365%.

From ChEMBL document CHEMBL4033641, “Design, synthesis and anticancer potential of NSC-319745 hydroxamic acid derivatives as DNMT and HDAC inhibitors” (Eur J Med Chem, 2017)
